# In ChEMBL document CHEMBL1201862, “PubChem BioAssay data set” (2004):
#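 A five-concentration, 48-hour dose response in 96-well plates underlies each endpoint, interpolated linearly between surrounding concentrations. GI50 = concentration required for 50% inhibition of growth.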 The source made the active and inactive calls. Rule as the data show it: active = GI50 up to about 1.1 µM and inactive = higher.
# Experiments:
# Assay in all cases: DTP human tumour cell line panel, 48 h
# 786-0 = test system: 786-0
# SR = test system: SR
# UACC-62 = test system: UACC-62
# SNB-19 = test system: SNB-19
# HCT-116 = test system: HCT-116
# RXF 631 = test system: RXF 631
# CAKI-1 = test system: CAKI-1
# RPMI-8226 = test system: RPMI-8226
# COLO 205 = test system: COLO 205
# HCT-15 = test system: HCT-15
# SK-MEL-28 = test system: SK-MEL-28
# M19-MEL = test system: M19-MEL
# OVCAR-5 = test system: OVCAR-5
# DMS-273 = test system: DMS-273
# MOLT-4 = test system: MOLT-4
# OVCAR-4 = test system: OVCAR-4
# SF-539 = test system: SF-539
# SF-295 = test system: SF-295
# M14 = test system: M14
# CCRF-CEM = test system: CCRF-CEM
# K562 = test system: K562
# A498 = test system: A498
# HT-29 = test system: HT-29
# U-251 = test system: U-251
# NCI-H460 = test system: NCI-H460
# Malme-3M = test system: Malme-3M
# SK-MEL-5 = test system: SK-MEL-5
# DLD-1 = test system: DLD-1
# HOP-18 = test system: HOP-18
# SN12C = test system: SN12C
# KM12 = test system: KM12
# NCI-H23 = test system: NCI-H23
# XF498 = test system: XF498
# HCC 2998 = test system: HCC 2998
# A549 = test system: A549
# SF-268 = test system: SF-268
# SW-620 = test system: SW-620
# LOX IMVI = test system: LOX IMVI
# LXFL 529 = test system: LXFL 529
# KM-20L2 = test system: KM-20L2
# OVCAR-8 = test system: OVCAR-8
# OVCAR-3 = test system: OVCAR-3
# NCI-H522 = test system: NCI-H522
# HL-60 = test system: HL-60
# UACC-257 = test system: UACC-257
# SNB-78 = test system: SNB-78
# HOP-62 = test system: HOP-62
# IGROV-1 = test system: IGROV-1
# TK-10 = test system: TK-10
# ACHN = test system: ACHN
# HOP-92 = test system: HOP-92
# RXF 393 = test system: RXF 393
# SK-MEL-2 = test system: SK-MEL-2
# DMS-114 = test system: DMS-114
# EKVX = test system: EKVX
# NCI-H226 = test system: NCI-H226
# SNB-75 = test system: SNB-75
# SK-OV-3 = test system: SK-OV-3
# UO-31 = test system: UO-31
compound,measurement,setting,value
COC1CC(OS(=O)(=O)c2ccc([N+](=O)[O-])cc2)C(OC(=O)c2ccccc2)C(C)O1 (stereo not given),GI50,786-0,32.2 µM (inactive)
same,GI50,SR,> 100 µM (inactive)
same,GI50,UACC-62,> 100 µM (inactive)
same,GI50,SNB-19,> 100 µM (inactive)
same,GI50,HCT-116,> 100 µM (inactive)
same,GI50,RXF 631,58.5 µM (inactive)
same,GI50,CAKI-1,> 100 µM (inactive)
same,GI50,RPMI-8226,> 100 µM (inactive)
same,GI50,COLO 205,> 100 µM (inactive)
same,GI50,HCT-15,> 100 µM
same,GI50,SK-MEL-28,> 100 µM (inactive)
same,GI50,M19-MEL,> 100 µM (inactive)
same,GI50,OVCAR-5,> 100 µM (inactive)
same,GI50,DMS-273,> 100 µM (inactive)
same,GI50,MOLT-4,> 100 µM (inactive)
same,GI50,OVCAR-4,49.9 µM (inactive)
same,GI50,SF-539,54.6 µM (inactive)
same,GI50,SF-295,> 100 µM (inactive)
same,GI50,M14,> 100 µM (inactive)
same,GI50,CCRF-CEM,> 100 µM (inactive)
same,GI50,K562,> 100 µM (inactive)
same,GI50,A498,88.7 µM (inactive)
same,GI50,HT-29,> 100 µM (inactive)
same,GI50,U-251,> 100 µM (inactive)
same,GI50,NCI-H460,> 100 µM (inactive)
same,GI50,Malme-3M,> 100 µM (inactive)
same,GI50,SK-MEL-5,> 100 µM (inactive)
same,GI50,DLD-1,> 100 µM (inactive)
same,GI50,HOP-18,> 100 µM (inactive)
same,GI50,SN12C,> 100 µM (inactive)
same,GI50,KM12,> 100 µM (inactive)
same,GI50,NCI-H23,> 100 µM (inactive)
same,GI50,XF498,31.8 µM (inactive)
same,GI50,HCC 2998,> 100 µM (inactive)
same,GI50,A549,> 100 µM (inactive)
same,GI50,SF-268,82.2 µM (inactive)
same,GI50,SW-620,> 100 µM (inactive)
same,GI50,LOX IMVI,> 100 µM (inactive)
same,GI50,LXFL 529,> 100 µM (inactive)
same,GI50,KM-20L2,> 100 µM (inactive)
same,GI50,OVCAR-8,> 100 µM (inactive)
same,GI50,OVCAR-3,> 100 µM (inactive)
same,GI50,NCI-H522,> 100 µM (inactive)
same,GI50,HL-60,> 100 µM (inactive)
same,GI50,UACC-257,> 100 µM (inactive)
same,GI50,SNB-78,> 100 µM (inactive)
same,GI50,HOP-62,> 100 µM (inactive)
same,GI50,IGROV-1,> 100 µM (inactive)
same,GI50,TK-10,> 100 µM (inactive)
same,GI50,ACHN,> 100 µM (inactive)
same,GI50,HOP-92,55.2 µM (inactive)
same,GI50,RXF 393,39.1 µM (inactive)
O=C(/C=C/c1ccccc1O)c1ccc([N+](=O)[O-])cc1,GI50,786-0,17.3 µM (inactive)
same,GI50,SR,19.4 µM (inactive)
same,GI50,UACC-62,14.7 µM (inactive)
same,GI50,SK-MEL-2,19.8 µM (inactive)
same,GI50,SNB-19,16.6 µM (inactive)
same,GI50,HCT-116,15.6 µM (inactive)
same,GI50,RXF 631,18.7 µM (inactive)
same,GI50,CAKI-1,18.5 µM (inactive)
same,GI50,COLO 205,12.5 µM (inactive)
same,GI50,HCT-15,17 µM
same,GI50,SK-MEL-28,16.1 µM (inactive)
same,GI50,M19-MEL,18.4 µM (inactive)
same,GI50,OVCAR-5,22.1 µM (inactive)
same,GI50,DMS-273,15.2 µM (inactive)
same,GI50,MOLT-4,22.3 µM (inactive)
same,GI50,DMS-114,10.3 µM (inactive)
same,GI50,OVCAR-4,12 µM (inactive)
same,GI50,SF-539,15.4 µM (inactive)
same,GI50,SF-295,21.7 µM (inactive)
same,GI50,M14,20.9 µM (inactive)
same,GI50,CCRF-CEM,15.8 µM (inactive)
same,GI50,K562,20.9 µM (inactive)
same,GI50,A498,20.8 µM (inactive)
same,GI50,HT-29,19.9 µM (inactive)
same,GI50,U-251,14.6 µM (inactive)
same,GI50,NCI-H460,22.7 µM (inactive)
same,GI50,Malme-3M,44 µM (inactive)
same,GI50,SK-MEL-5,20.1 µM (inactive)
same,GI50,DLD-1,12.9 µM (inactive)
same,GI50,HOP-18,30.1 µM (inactive)
same,GI50,EKVX,10.6 µM (inactive)
same,GI50,SN12C,15.5 µM (inactive)
same,GI50,KM12,18.5 µM (inactive)
same,GI50,NCI-H23,11.3 µM (inactive)
same,GI50,XF498,16.9 µM (inactive)
same,GI50,HCC 2998,16.5 µM (inactive)
same,GI50,NCI-H226,18 µM (inactive)
same,GI50,A549,22.5 µM (inactive)
same,GI50,SF-268,18 µM (inactive)
same,GI50,SW-620,16.6 µM (inactive)
same,GI50,LOX IMVI,15.8 µM (inactive)
same,GI50,LXFL 529,13.4 µM (inactive)
same,GI50,KM-20L2,18.8 µM (inactive)
same,GI50,OVCAR-8,15.5 µM (inactive)
same,GI50,SNB-75,7.8 µM (inactive)
same,GI50,OVCAR-3,12.4 µM (inactive)
same,GI50,NCI-H522,17.3 µM (inactive)
same,GI50,HL-60,16.4 µM (inactive)
same,GI50,UACC-257,53.3 µM (inactive)
same,GI50,SK-OV-3,26.8 µM (inactive)
same,GI50,SNB-78,20.9 µM (inactive)
same,GI50,HOP-62,16.4 µM (inactive)
same,GI50,IGROV-1,12.9 µM (inactive)
same,GI50,UO-31,19.1 µM (inactive)
same,GI50,TK-10,26.7 µM (inactive)
same,GI50,ACHN,11.9 µM (inactive)
same,GI50,HOP-92,26.6 µM (inactive)
same,GI50,RXF 393,11 µM (inactive)
